US20240123078A1, “COMPOUNDS AND METHODS FOR MODULATING IMMUNE-RELATED PROTEINS” (Vividion Therapeutics, Inc., priority 2019, published 2024)

Columns and labels:
Assay in all cases: Cysteine reactivity ABPP
Assay type in all cases: binding
[1] = target: T1, ACAT1 Acetyl-CoA acetyltransferase, mitochondrial C119 (P24752) (Homo sapiens, UniProt P24752)
T1 construct: endogenous in cells; host or cells: primary human T cells
T1 sequence (P24752 34-427): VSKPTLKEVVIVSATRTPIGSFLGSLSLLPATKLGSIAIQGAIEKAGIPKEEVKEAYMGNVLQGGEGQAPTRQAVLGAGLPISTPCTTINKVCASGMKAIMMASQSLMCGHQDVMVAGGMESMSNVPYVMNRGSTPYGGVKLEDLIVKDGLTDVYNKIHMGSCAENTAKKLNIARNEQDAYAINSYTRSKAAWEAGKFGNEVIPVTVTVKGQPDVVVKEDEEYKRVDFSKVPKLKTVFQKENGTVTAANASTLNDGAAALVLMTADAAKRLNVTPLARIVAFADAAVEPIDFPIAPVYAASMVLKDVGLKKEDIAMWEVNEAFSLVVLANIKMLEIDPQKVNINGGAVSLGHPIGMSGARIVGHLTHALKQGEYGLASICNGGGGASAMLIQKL
Protocol: (§1) Activated or expanded primary human T cells were re-suspended in RPMI (1×10^6 cells/mL) containing 10% fetal bovine serum (FBS), penicillin (100 U/mL), streptomycin ([…]), and L-glutamine (2 mM). The cells were treated with DMSO or compounds for 3 h, pelleted (524 g, 5 min), washed with PBS, and lysed by sonication (2×8 pulses). Soluble and particulate proteomic fractions were separated by ultracentrifugation (100,000 g, 45 min), and protein concentration was normalized to 1.7 mg/mL using a standard DC protein assay (Bio-Rad). The resulting proteomes were analyzed by competitive isotopic Tandem Orthogonal Proteolysis Activity-Based Protein Profiling (isoTOP-ABPP).
(§2) The heavy/light isoTOP-ABPP ratios (R values) for each unique peptide (DMSO/compound treated) were quantified with in-house CIMAGE software (Weerapana et al., 2010) using default parameters (3 MS1 acquisitions per peak and signal to noise threshold set to 2.5). Site-specific engagement of cysteine residues was assessed by blockade of IA-alkyne probe labeling. […] Ratios for unique peptide sequences were calculated for each experiment; overlapping peptides with the same modified cysteine (e.g., different charge states, elution times or tryptic termini) were grouped together and the median ratio was reported as the final ratio (R). Additionally, ratios for peptide sequences containing multiple cysteines were grouped together. When aggregating data across experimental replicates, the mean of each experimental median R was reported. The peptide ratios reported by CIMAGE were further filtered to ensure the removal or correction of low-quality ratios in each individual dataset. The quality filters applied were the following: removal of half-tryptic peptides, removal of peptides with more than one tryptic miscleaved, removal of peptides with R=20 and only a single MS2 event triggered during the elution of the parent ion, removal of non-unique peptides. Further filtering was then performed as described below for each experiment type.
(§3) Samples (500 μL, 1.7 mg/mL) were treated with iodoacetamide desthiobiotin (IA-DTB, 5 μL of 10 mM stock in DMSO, final concentration: 100 μM) for 1 h at ambient temperature. Ice-cold MeOH (500 μL) and CHCl3 (200 μL) were then added, the mixture was vortexed and centrifuged (10,000 g, 10 min, 4° C.) to afford a protein disc at the interface of CHCl3 and aqueous layers. Both layers were aspirated without perturbing the disk, which was re-suspended in cold methanol (500 μL) and CHCl3 (200 μL) by sonication. The proteins were pelleted (10,000 g, 10 min, 4° C.), and the resulting pellets were re-suspended in a buffer (90 μL) containing 9M urea, 10 mM DTT and 50 mM triethylammonium bicarbonate ( 1/20 dilution of 1.0 M stock solution, pH 8.5) by thorough pipetting up and down. The resulting mixture was heated at 65° C. for 20 min. Sample was cooled to room temp, iodoacetamide (10 μL, 500 mM solution in H2O) was added, and the samples were incubated at 37° C. for 30 min with shaking.
(§4) At individual TMT experiment level, the following filters were applied to remove low-quality peptides: removal of non-unique peptides; removal of half-tryptic peptides; removal of peptides with more than one internal miscleaved site; removal of peptides with low (<10,000) sum of reporter ion intensities for control channels, and peptides with high variation between the replicate control channels (coefficient of variance >0.5). R values (compound-treated vs. DMSO-treated) for each peptide entry were calculated using the reporter ion intensities of DMSO and compound treated TMT channels for each treatment group with a maximum ratio cap of 20. […]

[2] = target: T2, ATP2A2 Sarcoplasmic/endoplasmic reticulum calcium ATPase 2 C997 (P16615) (Homo sapiens, UniProt P16615)
T2 construct: endogenous in cells; host or cells: primary human T cells
Protocol: as §1, §2, §3, §4

[3] = target: T3, CBLB E3 ubiquitin-protein ligase CBL-B C686 (Q13191) (Homo sapiens, UniProt Q13191)
T3 construct: endogenous in cells; host or cells: primary human T cells
T3 sequence (Q13191 whole entry): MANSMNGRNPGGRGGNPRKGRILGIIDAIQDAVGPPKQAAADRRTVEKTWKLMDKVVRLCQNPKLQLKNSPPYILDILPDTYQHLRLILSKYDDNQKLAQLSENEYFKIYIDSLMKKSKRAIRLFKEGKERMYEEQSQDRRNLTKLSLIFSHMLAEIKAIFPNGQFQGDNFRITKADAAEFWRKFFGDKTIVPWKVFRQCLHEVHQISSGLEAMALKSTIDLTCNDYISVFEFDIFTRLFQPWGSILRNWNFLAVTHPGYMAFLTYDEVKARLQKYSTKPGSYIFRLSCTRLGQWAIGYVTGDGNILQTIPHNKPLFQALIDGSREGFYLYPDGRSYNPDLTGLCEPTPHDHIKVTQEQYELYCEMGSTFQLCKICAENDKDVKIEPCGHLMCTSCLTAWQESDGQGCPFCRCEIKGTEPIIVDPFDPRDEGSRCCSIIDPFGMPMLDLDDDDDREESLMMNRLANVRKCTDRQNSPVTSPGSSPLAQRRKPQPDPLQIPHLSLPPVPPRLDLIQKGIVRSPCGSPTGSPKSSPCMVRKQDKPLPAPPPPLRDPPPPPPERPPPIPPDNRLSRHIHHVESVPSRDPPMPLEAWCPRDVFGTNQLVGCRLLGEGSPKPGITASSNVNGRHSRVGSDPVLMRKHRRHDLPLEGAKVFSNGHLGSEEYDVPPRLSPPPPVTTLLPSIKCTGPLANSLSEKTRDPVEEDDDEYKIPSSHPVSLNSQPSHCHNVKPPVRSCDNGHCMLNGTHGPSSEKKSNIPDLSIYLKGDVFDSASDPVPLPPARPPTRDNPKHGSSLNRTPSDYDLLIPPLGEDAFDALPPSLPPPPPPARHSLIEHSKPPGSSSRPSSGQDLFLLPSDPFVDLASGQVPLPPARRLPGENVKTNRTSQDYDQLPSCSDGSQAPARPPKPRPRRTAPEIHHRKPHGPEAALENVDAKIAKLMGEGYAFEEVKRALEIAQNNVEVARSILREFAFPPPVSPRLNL
Protocol: as §1, §2, §3, §4

[4] = target: T4, JAK1 Tyrosine-protein kinase JAK1 C810, C817 (P23458) (Homo sapiens, UniProt P23458)
T4 construct: endogenous in cells; host or cells: primary human T cells
T4 sequence (P23458 whole entry): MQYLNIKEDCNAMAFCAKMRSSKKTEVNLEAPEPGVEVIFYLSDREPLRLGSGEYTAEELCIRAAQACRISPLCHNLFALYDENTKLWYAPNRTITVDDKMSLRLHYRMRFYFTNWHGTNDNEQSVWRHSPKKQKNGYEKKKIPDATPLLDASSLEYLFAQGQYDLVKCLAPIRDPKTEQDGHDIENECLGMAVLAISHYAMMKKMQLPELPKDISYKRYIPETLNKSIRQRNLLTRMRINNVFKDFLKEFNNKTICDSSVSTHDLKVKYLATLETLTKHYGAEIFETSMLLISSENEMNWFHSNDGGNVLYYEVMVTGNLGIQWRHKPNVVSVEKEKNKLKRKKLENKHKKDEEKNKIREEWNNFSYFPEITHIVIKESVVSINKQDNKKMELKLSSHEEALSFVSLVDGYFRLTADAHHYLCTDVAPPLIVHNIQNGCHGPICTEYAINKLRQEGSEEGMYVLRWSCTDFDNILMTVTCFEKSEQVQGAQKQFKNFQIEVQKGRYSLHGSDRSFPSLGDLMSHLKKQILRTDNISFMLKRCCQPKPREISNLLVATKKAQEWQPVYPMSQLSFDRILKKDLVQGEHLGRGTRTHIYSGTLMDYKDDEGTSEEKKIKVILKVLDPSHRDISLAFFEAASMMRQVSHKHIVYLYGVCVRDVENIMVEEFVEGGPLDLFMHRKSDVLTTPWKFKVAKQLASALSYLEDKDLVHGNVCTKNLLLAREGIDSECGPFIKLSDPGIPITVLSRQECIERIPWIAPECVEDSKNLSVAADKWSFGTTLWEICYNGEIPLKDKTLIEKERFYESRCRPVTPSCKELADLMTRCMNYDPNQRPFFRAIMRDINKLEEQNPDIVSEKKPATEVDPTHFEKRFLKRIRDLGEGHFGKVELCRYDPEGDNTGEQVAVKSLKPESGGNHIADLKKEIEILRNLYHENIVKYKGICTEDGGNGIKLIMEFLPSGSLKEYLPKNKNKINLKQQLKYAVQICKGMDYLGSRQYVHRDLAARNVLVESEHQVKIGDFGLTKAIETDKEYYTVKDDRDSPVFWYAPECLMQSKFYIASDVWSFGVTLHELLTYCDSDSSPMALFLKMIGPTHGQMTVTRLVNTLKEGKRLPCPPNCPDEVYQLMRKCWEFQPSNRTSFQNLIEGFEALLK
Protocol: as §1, §2, §3, §4

[5] = target: T5, PELP1 Proline-, glutamic acid- and leucine-rich protein 1 C71 (Q8IZL8) (Homo sapiens, UniProt Q8IZL8)
T5 construct: endogenous in cells; host or cells: primary human T cells
Protocol: as §1, §2, §3, §4

[6] = target: T6, PFKFB3 6-phosphofructo-2-kinase/fructose-2,6-bisphosphatase 3 C155 (Q16875) (Homo sapiens, UniProt Q16875)
T6 construct: endogenous in cells; host or cells: primary human T cells
T6 sequence (Q16875 whole entry, one chain of several): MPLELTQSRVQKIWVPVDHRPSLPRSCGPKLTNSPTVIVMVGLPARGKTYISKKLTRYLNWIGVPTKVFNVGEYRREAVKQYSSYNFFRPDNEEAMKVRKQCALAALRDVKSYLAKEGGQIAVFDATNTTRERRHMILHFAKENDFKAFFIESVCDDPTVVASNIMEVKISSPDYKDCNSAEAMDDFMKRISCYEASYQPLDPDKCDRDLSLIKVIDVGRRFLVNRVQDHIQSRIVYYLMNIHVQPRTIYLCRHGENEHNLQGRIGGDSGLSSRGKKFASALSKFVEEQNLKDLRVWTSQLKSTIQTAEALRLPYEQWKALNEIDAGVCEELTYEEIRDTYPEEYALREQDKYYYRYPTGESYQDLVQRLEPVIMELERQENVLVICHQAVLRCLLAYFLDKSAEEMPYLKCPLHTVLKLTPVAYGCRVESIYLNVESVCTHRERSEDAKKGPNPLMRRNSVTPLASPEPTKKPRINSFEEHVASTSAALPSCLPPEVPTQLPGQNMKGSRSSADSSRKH
Protocol: as §1, §2, §3, §4

[7] = target: T7, STAT3 Signal transducer and activator of transcription 3 C259 (P40763) (Homo sapiens, UniProt P40763)
T7 construct: endogenous in cells; host or cells: primary human T cells
T7 sequence (P40763 whole entry, one chain of several): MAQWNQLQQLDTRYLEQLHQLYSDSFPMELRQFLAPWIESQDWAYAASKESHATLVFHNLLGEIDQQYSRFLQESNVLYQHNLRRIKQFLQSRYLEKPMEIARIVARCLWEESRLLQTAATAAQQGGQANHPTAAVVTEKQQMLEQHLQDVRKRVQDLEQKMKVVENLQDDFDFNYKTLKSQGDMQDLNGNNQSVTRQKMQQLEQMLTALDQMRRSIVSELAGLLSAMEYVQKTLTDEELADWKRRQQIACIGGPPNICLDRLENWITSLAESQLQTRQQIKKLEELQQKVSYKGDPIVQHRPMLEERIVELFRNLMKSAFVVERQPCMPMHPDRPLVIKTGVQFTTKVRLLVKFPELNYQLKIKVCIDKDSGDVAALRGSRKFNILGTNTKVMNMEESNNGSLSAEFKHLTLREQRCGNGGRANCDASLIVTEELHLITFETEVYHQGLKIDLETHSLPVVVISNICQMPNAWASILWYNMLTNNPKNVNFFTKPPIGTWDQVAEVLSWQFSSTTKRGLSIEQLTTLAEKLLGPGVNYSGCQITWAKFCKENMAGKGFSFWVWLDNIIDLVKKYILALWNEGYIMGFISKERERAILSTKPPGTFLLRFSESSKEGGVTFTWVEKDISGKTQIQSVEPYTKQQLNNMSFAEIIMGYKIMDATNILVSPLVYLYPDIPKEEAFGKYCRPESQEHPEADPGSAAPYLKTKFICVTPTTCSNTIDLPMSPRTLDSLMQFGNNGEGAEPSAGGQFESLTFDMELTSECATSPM
Protocol: as §1, §2, §3, §4

[8] = target: T8, STAT3 Signal transducer and activator of transcription 3 C712, C718 (P40763) (Homo sapiens, UniProt P40763)
T8 construct: endogenous in cells; host or cells: primary human T cells
T8 sequence (P40763 whole entry, one chain of several): as above
Protocol: as §1, §2, §3, §4

[9] = target: T9, TYK2 Non-receptor tyrosine-protein kinase TYK2 C838 (P29597) (Homo sapiens, UniProt P29597)
T9 construct: endogenous in cells; host or cells: primary human T cells
T9 sequence (P29597 whole entry): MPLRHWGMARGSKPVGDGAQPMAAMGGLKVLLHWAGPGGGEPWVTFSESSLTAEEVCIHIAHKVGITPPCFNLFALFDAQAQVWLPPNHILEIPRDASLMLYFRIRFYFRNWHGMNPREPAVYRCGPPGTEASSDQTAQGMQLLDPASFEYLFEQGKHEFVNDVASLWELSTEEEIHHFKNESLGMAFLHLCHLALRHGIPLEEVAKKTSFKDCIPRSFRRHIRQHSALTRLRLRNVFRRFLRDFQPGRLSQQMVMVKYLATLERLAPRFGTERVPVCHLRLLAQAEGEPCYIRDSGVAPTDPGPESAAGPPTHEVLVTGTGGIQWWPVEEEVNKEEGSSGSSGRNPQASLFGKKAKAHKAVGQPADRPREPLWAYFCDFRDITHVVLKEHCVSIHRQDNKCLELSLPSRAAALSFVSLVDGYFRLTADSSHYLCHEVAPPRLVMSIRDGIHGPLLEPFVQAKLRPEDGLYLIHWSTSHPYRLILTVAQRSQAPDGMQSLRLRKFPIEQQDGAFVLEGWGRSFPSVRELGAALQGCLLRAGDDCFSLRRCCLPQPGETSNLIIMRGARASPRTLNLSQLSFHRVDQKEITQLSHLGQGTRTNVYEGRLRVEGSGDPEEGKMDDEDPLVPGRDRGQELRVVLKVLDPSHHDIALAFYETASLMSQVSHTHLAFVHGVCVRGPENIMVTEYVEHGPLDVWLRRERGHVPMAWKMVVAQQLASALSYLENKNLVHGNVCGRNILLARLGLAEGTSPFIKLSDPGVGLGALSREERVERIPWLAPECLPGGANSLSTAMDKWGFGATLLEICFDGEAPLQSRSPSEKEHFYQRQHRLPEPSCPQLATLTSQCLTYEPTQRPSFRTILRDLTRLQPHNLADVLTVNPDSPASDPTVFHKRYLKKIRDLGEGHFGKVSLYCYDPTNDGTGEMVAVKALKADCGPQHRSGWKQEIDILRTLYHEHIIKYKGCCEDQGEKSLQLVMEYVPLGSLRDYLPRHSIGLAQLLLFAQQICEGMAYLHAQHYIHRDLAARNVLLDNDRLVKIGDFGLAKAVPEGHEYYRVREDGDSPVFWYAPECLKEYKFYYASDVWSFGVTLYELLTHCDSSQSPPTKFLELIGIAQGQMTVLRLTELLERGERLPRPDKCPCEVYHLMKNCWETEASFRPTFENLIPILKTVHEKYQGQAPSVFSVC
Protocol: as §1, §2, §3, §4

| Structure (SMILES) | Cysteine reactivity proteomic data ([1]; 100 μM) | Cysteine reactivity proteomic data ([1]; 500 μM) | Cysteine reactivity proteomic data [2]; 100 | Cysteine reactivity proteomic data ([3]; 100 μM) | Cysteine reactivity proteomic data ([3]; 500 μM) | Cysteine reactivity proteomic data ([4]; 100 μM) | Cysteine reactivity proteomic data ([4]; 500 μM) | Cysteine reactivity proteomic data [5]; 100 | Cysteine reactivity proteomic data ([6]; 100 μM) | Cysteine reactivity proteomic data ([6]; 500 μM) | Cysteine reactivity proteomic data ([7]; 100 μM) | Cysteine reactivity proteomic data ([7]; 500 μM) | Cysteine reactivity proteomic data ([8]; 100 μM) | Cysteine reactivity proteomic data ([8]; 500 μM) | Cysteine reactivity proteomic data ([9]; 100 μM) | Cysteine reactivity proteomic data ([9]; 500 μM) | Cysteine reactivity proteomic data ([2]; 500 μM) | Cysteine reactivity proteomic data ([5]; 500 μM) |
| --- | --- | --- | --- | --- | --- | --- | --- | --- | --- | --- | --- | --- | --- | --- | --- | --- | --- | --- |
| O=C(CCl)N1CCN(S(=O)(=O)c2ccc(-c3ccncc3)cc2)CC1 [Compound B9] | −38.85 | 24.795 | 22.19 | 25.6002 | 76.6489 | 18.7286 | 90.3525 | 71.33 | 26.69 | 90.3507 | 42.3797 | 73.3713 | 64.9054 | 69.5373 | 78.9759 | 98.8468 |  |  |
| C=CC(=O)N(Cc1cccc(Cl)c1Cl)c1ccc(Oc2ccccc2)c(C(F)(F)F)c1 [Compound K4] |  | −0.3282 |  |  | 2.418 |  | 39.2015 |  |  | −24.3435 |  | 13.6326 |  | 12.6621 |  | 22.4158 | 61.48 | 1.71 |
